The series in a line: gradient 5% acetonitrile 3 min, to 50% in 2 min, to 85% in 15 min, held 3 min, 100 µL/min. Particulars: column: Zorbax Extend-C18 2.1 x 50 mm; eluents: water / acetonitrile, 0.1% formic acid. In a few lines:
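Mixtures of ~100 pure standards were chromatographed on a Zorbax Extend-C18 column (2.1 × 50 mm, 1.8 μm) at 100 μL/min using water and acetonitrile, each with 0.1% formic acid. Detection used a quadrupole time-of-flight mass spectrometer in positive and negative ionization mode, and data collection spanned 3 months. Retention time was obtained from adduct peaks picked computationally and each checked manually.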
`Cc1cc(Br)ccc1NC(=O)C(=O)Nc1ccc2nc3n(c(=O)c2c1)CCCCC3` gave an RP-LC retention time of 990 s.
Compound `CCC(C)NC(=O)C1CC(=O)N(c2ccc3c(c2)CCN3C(=O)C2CC2)C1` (stereo not given) registered an RP-LC retention time of 686 s.
Turning to `Cc1ccc(C)c(CN2CCC(CNC(=O)C3CCN(c4cc(=O)n(C)c(=O)n4C)CC3)CC2)c1`, the RP-LC retention time was determined as 618 s.
`CC1CCN(c2cc(-n3cnc(C(=O)NCc4ccco4)c3)ncn2)CC1` gave an RP-LC retention time of 678 s.
Compound `Cc1noc(-c2ccc(OC3CN(C(=O)C4CCOC4)C3)cc2)n1` (stereo not given) had an RP-LC retention time of 695 s.
The figure for `CCC(=O)NCc1nc2c(n1CC)CN(S(=O)(=O)c1ccc(F)cc1)CC2` is 575 s; for `Cc1ccc(C)c(-n2ccn(Cc3nc(-c4ccccc4)no3)c(=O)c2=O)c1` it is 886 s.
The figure for `COc1ccc(Cl)c2c(=O)c3c([nH]c12)CCN(CC(=O)Nc1cccc(C)c1)C3` is 627 s; for `Cc1[nH]c(C(=O)Nc2ccc(F)cc2)c(C)c1S(=O)(=O)N1CCCC1` it is 845 s.
As for `Fc1ccc(Cc2noc(-c3nc(-c4ccccc4)no3)n2)cc1`, the RP-LC retention time was 1160 s.
The figure for `CCC(C)C(=O)N1CCc2[nH]nc(C(=O)NCCCc3ccccc3)c2C1` (stereo not given) is 781 s.
The figure for `CCN(CCN(C)C)c1ccc(C(=O)O)cc1NS(=O)(=O)c1cccc(C)c1` is 620 s; for `N#Cc1ccc(NC(=O)Cc2cn3cc(F)ccc3n2)cc1` it is 601 s; for `COc1ccc(S(=O)(=O)N2CCN(c3cnn4c(C)nnc4c3)CC2)cc1` it is 670 s.
Compound `O=C1NC2(CCN(C(=O)c3ccc4c(c3)OCO4)CC2)Nc2c(Cl)cccc21` returned an RP-LC retention time of 678 s.
Next, `Nc1nc(Nc2ccccc2F)nc2ccccc12`: 600 s; `O=C(NC1CC1)C1CCN(c2nc(-c3ccc(Cl)cc3)no2)CC1`: 859 s.
Next, `COc1cc([C@@H]2c3cc4c(cc3[C@H](O)[C@@H](CO)[C@@H]2C(=O)N2CCc3ccccc32)OCO4)cc(OC)c1OC`: 771 s; `COc1ccc(CNC(=O)c2c(C)sc3ccn(C)c(=O)c23)cc1OC`: 674 s; `O=C(Nc1ccc(C(=O)N2CCC(C(=O)NC3CCCCC3)CC2)cc1)c1ccc(Cl)cc1`: 835 s.
`COc1ccccc1-c1nnc(-c2ccc(C)c(S(=O)(=O)N3CCOCC3)c2)o1` came in with an RP-LC retention time of 867 s.
Regarding `CC1(C)CCC(NC(=O)[C@@H](N)CCC(=O)O)CC1`, the RP-LC retention time amounted to 654 s.
Compound `Cc1c(CCN)ccc2c1[nH]c1ccccc12` yielded an RP-LC retention time of 697 s.
In the case of `COc1ccc(C(C)NC(=O)c2cn3ccc(C)cc3n2)cc1` (stereo not given), the RP-LC retention time stood at 645 s.
Next, `CCCNC(=O)N1CCCCCC1CN1CCOCC1` (stereo not given): 580 s; `Cc1ccc(N(C)S(=O)(=O)c2ccc(-c3c(C)noc3C)cc2)cc1`: 1060 s.
Next, `O=C(Cn1ccc2ccccc21)NCc1n[nH]c(=O)c2ccccc12`: 657 s.
Next, `COc1ccc(NC(=O)Nc2cc(F)c3nc(N4CCOCC4)ccc3c2)cc1OC`: 938 s.
Take `Cc1cc(C)n2c(Nc3ccc(C(C)C)cc3)c(-c3ccccc3)nc2n1`: the RP-LC retention time came out at 828 s.
Next, `CCCN(c1ccc(F)cc1)c1nc(C(=O)OCC)nc2ccccc12`: 1080 s; `Cc1ccc(NC(=O)c2cn3c(n2)CCCC3)cc1C`: 604 s; `CC1(C(=O)NCc2ccc(Br)cc2)Oc2cccnc2NC1=O` (stereo not given): 733 s.
Next, `COCc1c(C(=O)O)nnn1-c1cccc(Br)c1`: 729 s; `COc1ccc(-c2nnc(COc3ccc(NC(=O)c4ccsc4)cc3)o2)cc1`: 892 s.
The figure for `O=C(NCc1cccs1)C1CCN(C(=O)c2ncn3c2COC(c2ccccc2)C3)CC1` (stereo not given) is 725 s; for `CC(NC(=O)c1ccco1)c1nc2ccccc2n1CC(=O)N1CCCCC1` (stereo not given) it is 627 s.
On to `CCOc1ccc(-c2nc(Cc3noc(-c4ccccc4OC)n3)c(C)o2)cc1`, for which the RP-LC retention time came out at 1170 s.
Next, `CCOC(=O)c1c(S(=O)(=O)N2CCC(C(=O)NCc3ccc(C)cc3)CC2)c(C)n(C)c1C`: 841 s.
Compound `CCN1C(=O)NC(c2ccccc2Cl)C2=C1CN(C(C(=O)N1CCCC1)C(C)C)C2=O` (stereo not given) displayed an RP-LC retention time of 680 s.
In turn, `CCOC(=O)C1CCN(C(=O)Cc2nnc(-c3sccc3C)o2)CC1` yielded an RP-LC retention time of 774 s.
Next, `CCc1ccccc1NC(=O)c1c(O)c2cccnc2n(-c2ccccc2)c1=O`: 1290 s; `Cc1ccc(CNC(=O)N2CCC(n3c(C(F)(F)F)nc4cccnc43)CC2)cc1`: 844 s.
As for `CCCOc1ccc(CN(C(=O)Cc2coc3ccc(C)cc23)C2CCS(=O)(=O)C2)cc1` (stereo not given), the RP-LC retention time stood at 1130 s.
Take `Cn1cc(-c2nc(C(=O)NCc3ccccc3F)cs2)c2cccnc21`: the RP-LC retention time came to 908 s.
In the case of `O=C(NCCCn1c(-c2ccncc2)nc2cccnc21)NCc1ccc(F)cc1`, the RP-LC retention time amounted to 627 s.
With `CCNc1cc(N2CCC(CCC(=O)NCc3ccccc3OC)CC2)ncn1`, the RP-LC retention time amounted to 650 s.
Next, `CN1CCn2cc(S(=O)(=O)Nc3ccc(F)c(F)c3)cc2C1=O`: 671 s; `COc1ccc(NC(=O)c2cc(C)n3nc(-c4ccco4)cc3n2)cc1Cl`: 1110 s.
On to `Cc1noc(C)c1Cc1c(C(=O)NCCc2noc(C3CC3)n2)noc1C`, for which the RP-LC retention time is 774 s.
The figure for `COc1ccc(OCc2nn3c(-c4ccoc4C)nnc3s2)cc1` is 900 s; for `CSc1ccc(CNC(=O)CC2c3ncccc3C(=O)N2c2ccccc2)cc1` (stereo not given) it is 752 s.
For `Cc1ccc(C)c(N2CCN(Cc3nc(-c4ccc(N5CCCC(C)C5)nc4)no3)CC2)c1` (stereo not given), the RP-LC retention time turned out to be 1280 s.
Turning to `COc1ccccc1CNC(=O)CN1CCN(Cc2ccc(F)cc2)C1=O`, the RP-LC retention time is 778 s.
The figure for `O=C(Cn1c(=O)c2cccn2c2ccc(F)cc21)NCCCN1CCCC1=O` is 647 s; for `CCCN(C)C(=O)CCC1CCN(c2cc(NC3CC3)ncn2)CC1` it is 648 s; for `CC(C)CC(=O)N1CCN(c2ccc(=O)n(-c3ccc(Cl)cc3)n2)CC1` it is 809 s.
Next, `CCCn1cc(C(=O)Nc2ccccc2CC)c2cccnc21`: 919 s; `Cc1nc2cc(N3CC(C(=O)N4CCN(c5ccc(F)cc5)CC4)CC3=O)ccc2o1` (stereo not given): 749 s; `COc1ccc(-n2nnc(-c3nc(-c4cc(OC)ccc4OC)cs3)c2N)cc1`: 1080 s.
The figure for `COc1ccc(OC)c(S(=O)(=O)N2C[C@@H](F)C[C@H]2C(=O)N2CCOCC2)c1` is 906 s.

(Values after the METLIN SMRT retention time set (Domingo-Almenara et al. 2019).)
